Columns and labels:
[1] = test system: A375-A2-ESO tumour cells / ESO-T cells / polarized MDMs
Description: (§1) FIG. 6: MAO-A blockade for cancer immunotherapy-human TAM and clinical data correlation studies. a, Studying the MAOA gene expression in human M1- and M2-like macrophages. A transcriptome data set (GSE35449) was analyzed using the prioritization function of a Tumour Immune Dysfunction and Exclusion (TIDE) computational method. Heatmaps are presented, showing the M2-like/M1-like mRNA fold change of MAOA gene as well as a selected group of immunosuppressive, immunostimulatory, and immune checkpoints signature genes. b-d, Studying the MAO-A expression in in vitro differentiated and IL-4/IL-13-polarized human monocyte-derived macrophages (MDMs: n=4). MDMs were generated by culturing healthy donor peripheral blood monocytes over 6 days, followed by stimulation with IL-4 and IL-13 for another 2 days. NC, no cytokine stimulation. (b,c) QPCR analyses of MAOA mRNA expression in MDMs over the 6-day MDM differentiation culture (b) and post the IL-4/IL-13-induced polarization (c). (d) Western blot analyses of MAO-A protein expression in IL-4/IL-13-polarized MDMs. e-g, Studying the in vitro polarization of human MDMs (n=3). MDMs were stimulated with IL-4/IL-13 for 2 days, in the presence or absence of phenelzine (Phe, 20 μM) treatment. NC, no cytokine stimulation: NT, no phenelzine treatment. (e) FACS analyses of CD206 expression on MDMs. (f,g) QPCR analyses ALOX15 (f) and (CD200R1 (g) mRNA expression in MDMs. h-j, Studying the in vivo polarization of human macrophages in a human Tumour-TAM Co-Inoculation xenograft mouse model (n=4). (h) Experimental design. FACS-sorted healthy donor peripheral blood monocytes were mixed with human A375 melanoma cells and s.c. injected into NSG mice to form solid tumours, with or without phenelzine treatment (Phe or NT). (i,j) FACS analyses of CD206 (i) and CD273 (j) expression on TAMs (gated as hCD45^+hCD11b^+hCD14^+ cells of total TIIs) isolated from experimental mice at day 10. k-m, Studying the in vitro efficacy of phenelzine in reprogramming human TAMs and enhancing human T cell antitumour reactivity (n=6). (k) Schematics showing an in vitro 3D human tumour/TAM/T cell organoid culture. A375-A2-ESO, human A375 melanoma cell line engineered to express an NY-ESO-1 tumour antigen as well as its matching HLA-A2 molecule: ESO-T, human peripheral blood CD8 T cells engineered to express an NY-ESO-1-specific TCR: Polarized TAM, human MDMs polarized in vitro with IL-4/IL-13 in the presence or absence of phenelzine treatment (denoted as TAM Phe or TAM NT, respectively). Cells were mixed and cultured as organoids for two days before analysis. (l,m) FACS quantification of live tumour cells (gated as hCD45^− cells) and ESO-T cells (gated as hCD45^+hCD8^+ESO-TCR^+ cells). n, QPCR analyses of MAOA mRNA expression in human TAMs isolated from ovarian cancer patient tumour samples (n=4). Monocytes isolated from random healthy donor peripheral blood were included as controls (n=10). Mo, monocyte. o-r, Clinical data correlation studies. The correlation function of a TIDE computational method was utilized. The association between the intratumoural MAOA gene expression levels and overall survival (OS) of cancer patients was computed through the two-sided Wald test in the Cox-PH regression. For each patient cohort, tumour samples were divided into the MAOA-high (samples with MAOA expression one standard deviation above the average) and MAOA-low (remaining samples) groups, followed by analysing the OS of each group. TIDE analyses of an ovarian cancer patient cohort (GSE26712, n=182: o), a lymphoma patient cohort (GSE10846, n=388: p), a breast cancers patient cohort (GSE9893, n=148: q), and a melanoma patient cohort with anti-PD-1 therapy (PRJEB23709, n=41: r). Representative of 1 (n), 2 (b-d, h-j) and 3 (e-g, k-m) experiments. All data are presented as the mean±SEM. ns, not significant, *P<0.05, **P<0.01, and ***P<0.001, by 1-way ANOVA (l, m), 2-way ANOVA (e-g), or by Student's t test (i, j, n).

human TAMs = details: A375 + human monocytes s.c. in NSG mice; phenelzine 30 mg/kg/day i.p.; day 10
Description: as §1

[2] = test system: human monocyte-derived macrophages (MDMs); details: phenelzine 20 μM, IL-4/IL-13 for 2 days
Description: as §1

[3] = ESO-T cells co-cultured with phenelzine-treated vs non-phenelzine-treated MDMs

## NNCCc1ccccc1 [phenelzine]
[1]; [3]
  CD25 expression on ESO-T cells: increased
  CD62L expression on ESO-T cells: decreased
  ESO-T cell number: increased
[1]; phenelzine treatment during MDM polarization, organoid cultured 2 days
  immunosuppressive effect of IL-4/IL-13-polarized MDMs on ESO-T cell-mediated killing of A375-A2-ESO tumour cells: largely alleviated
Human TAMs
  CD206 expression on human TAMs (FACS): decreased expression
  CD273 expression on human TAMs (FACS): decreased expression
  immunosuppressive polarization of human TAMs in vivo: effectively suppressed
[2]
  ALOX15 mRNA expression in MDMs (QPCR): decreased expression
  CD200R1 mRNA expression in MDMs (QPCR): decreased expression
  CD206 expression on MDMs (FACS): decreased expression
  CD273 expression on MDMs (FACS): decreased expression
  IL-4/IL-13-induced immunosuppressive polarization of MDMs: significantly inhibited
